Laboratory results published in patent US20180147131A1, “COMPOSITION FOR ORAL CAVITY AND FOOD PRODUCT, OR BEVERAGE” (KABUSHIKI KAISHA SANGI, priority 2015, published 2018).

Assay: Remineralization test (artificial incipient caries, contact microradiogram, computer image analysis)
Set-up: species or system bovine
Settings: conclusion from the remineralization tests of Examples and Comparative Examples
Excerpt: In order to confirm the remineralizing effect, a previously made artificial incipient caries test sample was used. For the making of the artificial incipient caries test sample, enamel on the labial surface of the crown portion of a bovine front tooth was used. The enamel surface was abraded with #1000, #2400, and #4000 abrasive paper. A window of about 5×3 mm was made with Nail Enamel (Manufactured by Shiseido Company, Limited) at a site to be tested, on the abraded enamel surface, and immersed in a 0.1 M lactate buffer solution (pH 4.8, 3.0 mmM CaCl2, 1.8 mmM KH2PO4, 1.0% CMC) at 37° C. for 4 days to make artificial incipient caries. […]
The effect of remineralizing the artificial incipient caries site was analyzed using a computer.
In image analysis by the computer, the amount of the remineralized mineral was calculated based on the formula of Angmer et al. (B. Angmer, D. Carlstrom and J. E. Glas: Studies on Ultrastructure of Dental Enemel IV: The Mineralization of normal Human Enamel, J. Ultrastructure. Res. 8, 12-23, 1963), and the amounts of the mineral lost AZ (% volume mineral·μm) at the control surface and treated surface of each section were calculated according to the method of Damato et al. (F. A. Damato, R. Stang and K. W. Stephen: Effect of Fluoride Concentration on Reminerelization of Carious Enamel: an in vitro pH-Cycling Study, Caries Res, 24, 174-180, 1990). […]

Question: Which “tooth remineralizing effect (in words)” value does the source give for sodium chondroitin sulfate here?
Answer: little tooth remineralizing effect
